Reference: patent US10961200B2, “Small molecule inhibitors of lactate dehydrogenase and methods of use thereof” (THE UNITED STATES OF AMERICA, AS REPRESENTED BY THE …, priority 2014, dated 2021)

Each molecule was assayed against Human LDHA (Homo sapiens (Human), UniProt P00338) (assay: human LDHA primary biochemical assay (resazurin/diaphorase coupled, fluorescence)). Details: LDHA inhibitory activity, assay of Example 1; activity level classes.
Excerpt: Test compounds were placed in a Greiner Bio-One (Monroe, N.C.) 1536-well black solid bottom assay plate. 200 millimolar (mM) Tris HCl, pH 7.4, 100 micromolar […] EDTA and 0.01% TWEEN-20™, final concentration, was used as the assay buffer. The LDHA reagent was 2 nanomolar (nM) Human LDHA (Meridian Life Science, Inc., Memphis, Tenn.), final concentration, in assay buffer.

Row | Compound | IC50 [nM]
1 | O=C(O)c1csc(-n2cc(-c3ccc(F)c(F)c3)c3cccnc32)n1 [Compound 23, 2-(3-(3,4-difluorophenyl)-1H-pyrrolo[2,3-b]pyridin-1-yl)thiazole-4-carboxylic acid] | > 57000
2 | O=C(O)c1csc(-n2nc(-c3ccc(F)c(F)c3)c3cccnc32)n1 [Compound 25, 2-(3-(3,4-difluorophenyl)-1H-pyrazolo[3,4-b]pyridin-1-yl)thiazole-4-carboxylic acid] | > 57000
3 | CS(=O)(=O)c1ccc(Cc2cn(-c3nc(C(=O)O)cs3)nc2-c2ccccc2)cc1 [Compound 27, 2-(4-(4-(methylsulfonyl)benzyl)-3-phenyl-1H-pyrazol-1-yl)thiazole-4-carboxylic acid] | > 57000
4 | O=C(O)c1csc(-n2cc(Cc3ccc(C(F)(F)F)cc3)c(-c3ccccc3)n2)n1 [Compound 28, 2-(3-phenyl-4-(4-(trifluoromethyl)benzyl)-1H-pyrazol-1-yl)thiazole-4-carboxylic acid] | > 57000
5 | O=C(O)c1csc(-n2cc(-c3cccc(-c4ccccc4)c3)c3cccnc32)n1 [Compound 29, 2-(3-([1,1′-biphenyl]-3-yl)-1H-pyrrolo[2,3-b]pyridin-1-yl)thiazole-4-carboxylic acid] | > 57000
6 | Nc1c(Cc2ccc(S(N)(=O)=O)cc2)c(-c2ccc(F)c(F)c2)nn1-c1nc(C(=O)O)cs1 [Compound 38, 2-(5-amino-3-(3,4-difluorophenyl)-4-(4-sulfamoylbenzyl)-1H-pyrazol-1-yl)thiazole-4-carboxylic acid] | < 100
7 | NS(=O)(=O)c1ccc(Cc2c(-c3ccc(F)c(F)c3)nn(-c3nc(C(=O)O)cs3)c2C(F)(F)F)cc1 [Compound 39, 2-(3-(3,4-difluorophenyl)-4-(4-sulfamoylbenzyl)-5-(trifluoromethyl)-1H-pyrazol-1-yl)thiazole-4-carboxylic acid] | < 100
8 | NS(=O)(=O)c1ccc(Cc2cn(-c3nc(C(=O)O)cs3)nc2-c2ccc(F)c(F)c2)cc1 [Compound 41, 2-(3-(3,4-difluorophenyl)-4-(4-sulfamoylbenzyl)-1H-pyrazol-1-yl)thiazole-4-carboxylic acid] | < 100
9 | NS(=O)(=O)c1ccc(Cc2c(-c3ccccc3)nn(-c3nc(C(=O)O)cs3)c2C(F)(F)F)cc1 [Compound 44, 2-(3-phenyl-4-(4-sulfamoylbenzyl)-5-(trifluoromethyl)-1H-pyrazol-1-yl)thiazole-4-carboxylic acid] | < 100
10 | NS(=O)(=O)c1ccc(Cc2c(-c3ccccc3)nn(-c3nc(C(=O)O)cs3)c2I)cc1 [Compound 45, 2-(5-iodo-3-phenyl-4-(4-sulfamoylbenzyl)-1H-pyrazol-1-yl)thiazole-4-carboxylic acid] | < 100
11 | NS(=O)(=O)c1ccc(NCc2c(-c3ccccc3)n[nH]c2O)cc1 [Compound 49, 4-(((5-hydroxy-3-phenyl-1H-pyrazol-4-yl)methyl)amino)benzenesulfonamide] | > 57000
12 | N#Cc1c(Cc2ccc(S(N)(=O)=O)cc2)c(-c2ccccc2)nn1-c1nc(C(=O)O)cs1 [Compound 50] | < 100
13 | COc1c(Cc2ccc(S(N)(=O)=O)cc2)c(-c2ccc(F)c(F)c2)nn1-c1nc(C(=O)O)cs1 [Compound 60, 2-(3-(3,4-difluorophenyl)-5-methoxy-4-(4-sulfamoylbenzyl)-1H-pyrazol-1-yl)thiazole-4-carboxylic acid] | 100 to 1000
14 | O=C(O)c1csc(-n2nc(-c3ccc(F)c(F)c3)cc2CO)n1 [Compound 64, 2-(3-(3,4-difluorophenyl)-5-(hydroxymethyl)-1H-pyrazol-1-yl)thiazole-4-carboxylic acid] | > 57000
15 | Cc1nn(-c2nc(C(=O)O)cs2)c(O)c1Cc1ccc(S(N)(=O)=O)cc1 [Compound 66, 2-(5-hydroxy-3-methyl-4-(4-sulfamoylbenzyl)-1H-pyrazol-1-yl)thiazole-4-carboxylic acid] | > 57000
16 | NC(=O)c1ccc(Cc2c(-c3cccc(-c4ccccc4)c3)nn(-c3nc(C(=O)O)cs3)c2O)cc1 [Compound 67, 2-(3-([1,1′-biphenyl]-3-yl)-4-(4-carbamoylbenzyl)-5-hydroxy-1H-pyrazol-1-yl)thiazole-4-carboxylic acid] | > 57000

Same assay, conditions: read-out: Inhibitory activity IC50

Row | Compound | IC50 [nM]
17 | NS(=O)(=O)c1ccc(Cc2cn(-c3nc(C(=O)O)cs3)nc2-c2ccccc2)cc1 [Compound 19, 2-(3-phenyl-4-(4-sulfamoylbenzyl)-1H-pyrazol-1-yl)thiazole-4-carboxylic acid] | < 100
18 | O=C(O)c1csc(-n2cc(Br)c(-c3cccc(-c4ccccc4)c3)n2)n1 [Compound 21, 2-(3-([1,1′-biphenyl]-3-yl)-4-bromo-1H-pyrazol-1-yl)thiazole-4-carboxylic acid] | 1000 to 57000
19 | O=C(O)c1csc(-n2ccc(-c3cccc(-c4ccccc4)c3)n2)n1 [Compound 22, 2-(3-([1,1′-biphenyl]-3-yl)-1H-pyrazol-1-yl)thiazole-4-carboxylic acid] | 1000 to 57000
20 | NS(=O)(=O)c1ccc(Oc2c(-c3ccccc3)nn(-c3nc(C(=O)O)cs3)c2O)cc1 [Compound 24, 2-(5-hydroxy-3-phenyl-4-(4-sulfamoylphenoxy)-1H-pyrazol-1-yl)thiazole-4-carboxylic acid] | 100 to 1000
21 | NS(=O)(=O)c1ccc(Cc2cn(-c3nc(C(=O)O)cs3)c3ncccc23)cc1 [Compound 26, 2-(3-(4-sulfamoylbenzyl)-1H-pyrrolo[2,3-b]pyridin-1-yl)thiazole-4-carboxylic acid] | 100 to 1000
22 | NS(=O)(=O)c1ccc(Cc2cn(-c3nc(C(=O)O)cs3)c3ccc(C(=O)N4CCOCC4)cc23)cc1 [Compound 30, 2-(5-(morpholine-4-carbonyl)-3-(4-sulfamoylbenzyl)-1H-indol-1-yl)thiazole-4-carboxylic acid] | 1000 to 57000
23 | NS(=O)(=O)c1ccc(Cc2cn(-c3nc(C(=O)O)cs3)c3ccc(F)cc23)cc1 [Compound 31, 2-(5-fluoro-3-(4-sulfamoylbenzyl)-1H-indol-1-yl)thiazole-4-carboxylic acid] | 100 to 1000
24 | NS(=O)(=O)c1ccc(Cc2cn(-c3nc(C(=O)O)cs3)c3ccc(CN4CCOCC4)cc23)cc1 [Compound 32, 2-(5-(morpholinomethyl)-3-(4-sulfamoylbenzyl)-1H-indol-1-yl)thiazole-4-carboxylic acid] | 1000 to 57000
25 | NS(=O)(=O)c1ccc(Oc2cn(-c3nc(C(=O)O)cs3)nc2-c2ccccc2)cc1 [Compound 33, 2-(3-phenyl-4-(4-sulfamoylphenoxy)-1H-pyrazol-1-yl)thiazole-4-carboxylic acid] | < 100
26 | NS(=O)(=O)c1ccc(Cc2cn(-c3nc(C(=O)O)cs3)c3ccncc23)cc1 [Compound 34, 2-(3-(4-sulfamoylbenzyl)-1H-pyrrolo[3,2-c]pyridin-1-yl)thiazole-4-carboxylic acid] | 100 to 1000
27 | NS(=O)(=O)c1ccc(Cc2nn(-c3nc(C(=O)O)cs3)c3ccccc23)cc1 [Compound 35, 2-(3-(4-sulfamoylbenzyl)-1H-indazol-1-yl)thiazole-4-carboxylic acid] | 1000 to 57000
28 | NS(=O)(=O)c1ccc(Cc2cn(-c3nc(C(=O)O)cs3)c3ccc(OC4CCOCC4)cc23)cc1 [Compound 36, 2-(3-(4-sulfamoylbenzyl)-5-((tetrahydro-2H-pyran-4-yl)oxy)-1H-indol-1-yl)thiazole-4-carboxylic acid] | 100 to 1000
29 | NS(=O)(=O)c1ccc(Cc2cn(-c3nc(C(=O)O)cs3)c3cc(C(=O)N4CCOCC4)ccc23)cc1 [Compound 37, 2-(6-(morpholine-4-carbonyl)-3-(4-sulfamoylbenzyl)-1H-indol-1-yl)thiazole-4-carboxylic acid] | 1000 to 57000
30 | CCOC(=O)c1csc(-n2nc(-c3cccc(-c4ccccc4)c3)c(Cc3ccc(S(N)(=O)=O)cc3)c2N)n1 [Compound 56, ethyl 2-(3-([1,1′-biphenyl]-3-yl)-5-amino-4-(4-sulfamoylbenzyl)-1H-pyrazol-1-yl)thiazole-4-carboxylate] | 1000 to 57000
31 | Cc1sc(-n2nc(-c3ccccc3)c(Cc3ccc(S(N)(=O)=O)cc3)c2N)nc1C(=O)O [Compound 57, 2-(5-amino-3-phenyl-4-(4-sulfamoylbenzyl)-1H-pyrazol-1-yl)-5-methylthiazole-4-carboxylic acid] | 100 to 1000
32 | CCOC(=O)c1csc(-n2nc(-c3ccccc3)c(Cc3ccc(S(N)(=O)=O)cc3)c2N)n1 [Compound 58, ethyl 2-(5-amino-3-phenyl-4-(4-sulfamoylbenzyl)-1H-pyrazol-1-yl)thiazole-4-carboxylate] | 1000 to 57000
33 | N#CCc1c(Cc2ccc(S(N)(=O)=O)cc2)c(-c2ccccc2)nn1-c1nc(C(=O)O)cs1 [Compound 59, 2-(5-(cyanomethyl)-3-phenyl-4-(4-sulfamoylbenzyl)-1H-pyrazol-1-yl)thiazole-4-carboxylic acid] | 100 to 1000
34 | CCOc1c(Cc2ccc(S(N)(=O)=O)cc2)c(-c2ccc(F)c(F)c2)nn1-c1nc(C(=O)O)cs1 [Compound 61, 2-(3-(3,4-difluorophenyl)-5-ethoxy-4-(4-sulfamoylbenzyl)-1H-pyrazol-1-yl)thiazole-4-carboxylic acid] | 100 to 1000
35 | O=C(O)c1csc(-n2nc(-c3ccccc3)cc2C(F)(F)F)n1 [Compound 62, 2-(3-phenyl-5-(trifluoromethyl)-1H-pyrazol-1-yl)thiazole-4-carboxylic acid] | 1000 to 57000
36 | O=C(O)c1csc(-n2nc(-c3cccc(-c4ccccc4F)c3)cc2O)n1 [Compound 63, 2-(3-(2′-fluoro-[1,1′-biphenyl]-3-yl)-5-hydroxy-1H-pyrazol-1-yl)thiazole-4-carboxylic acid] | > 57000
37 | O=C(O)c1ccc(Cc2c(-c3cccc(-c4ccccc4)c3)nn(-c3nc(C(=O)O)cs3)c2O)cc1 [Compound 68, 2-(3-([1,1′-biphenyl]-3-yl)-4-(4-carboxybenzyl)-5-hydroxy-1H-pyrazol-1-yl)thiazole-4-carboxylic acid] | > 57000
